Experimental data from patent US7220784B2, “Substituted stilbenes and their reactions” (priority 2000, dated 2007).
pIC50: −log10 of the molar value.

Assays:
[1] = test system: L1210 murine leukaemia cell line; experiment: MTT, L1210; assay type: cell-based; conditions: Mus musculus; L1210 murine leukaemia cell line (footnote a)
tubulin [2] = experiment: MA IC50 (Tables 12-26, abbreviation not defined); assay type: biochemical
tubulin [3] = experiment: CD IC50 (Tables 12-26, abbreviation not defined); assay type: binding

COc1ccc(/C=C\c2cc(O)c(OC)c(OC)c2)cc1O [Compound 18, reference compound]
IC50 [1]: 0.04 µM | pIC50 (tubulin [2]): 5.30 to 5.40 | pIC50 (tubulin [3]): 4.66
